Here are results for two compounds from patent US12180084B2, “Cerium (III) carbonate formulations” (THE REGENTS OF THE UNIVERSITY OF CALIFORNIA, priority 2019, dated 2024).

Series [1] can be described thus: MB organic dye photodegradation in aqueous slurry with P25 photocatalyst under 254 nm light. The settings on record: 1 mg Ce2(CO3)3·4H2O versus 11.4 mg Ce (III)-R706, 2 mg P25.
The nature of series [2]: MB dye photodecomposition under 254 nm light in the absence of any added photocatalyst. As to conditions: 1 mg in 10 mL 10^−5 M MB, up to 60 min, no photocatalyst. The text has this: Though photocatalysis increases photodecomposition of organics, thought to be mediated by generation of reactive oxygen species (ROS), organic molecules have their own absorptivity of light due to presence of light-absorbing chemical substituents. This absorptivity of light can itself produce radicals in water, which even in the absence of a photocatalyst per se, can ultimately lead to photodegradation/decomposition of organics. Here it was investigated whether it was possible to reduce the inherent photodecomposition/degradation of methylene blue (MB) dye under exposure to 254 nm light, by using cerium (III) carbonate, in the absence of any added photocatalyst.
Two separate sets of photoreactions were performed: (1) 10 mL aqueous solution of 10^−5 M MB dye was exposed to 254 nm light under a photoreactor setup for a duration of up to 60 min and (2) 1 mg Ce2(CO3)3·4H2O that was synthesized according to the procedure described in Example 3 was dispersed in a 10 mL aqueous solution of 10^−5 M MB dye, and the resulting slurry was exposed to 254 nm light under photoreactor setup for a duration of up to 60 min.

The nature of series [3]: CR organic dye photodegradation in dried acrylic paint film under sunlight. As to conditions: 6 h sunlight. The source says:
To investigate the effectiveness of this approach in a dry (solid) composition, Congo Red (CR) organic dye at a concentration of 3×10^−5 M was incorporated into a waterborne acrylic paint formulation dispersion, together with P25 photocatalyst (10 wt % relative to the Ti-Pure R706 pigment weight used in the dispersion).
A composition was made with 16% Ce (III)-R706 pigment volume concentration comprising CR organic dye (the pigment volume concentration is defined as the volume percentage of solid particles in the system after formation of the composition (e.g., excluding water). This was performed by first preparing a 75 wt % aqueous slurry of Ce (III)-R706 pigment by high shear mixing in presence of 0.3 wt % TAMOL™ 1124 with respect to the weight of pigment. 4.64 g of this slurry was incorporated in 12.78 g of acrylic-based BP 8164 polymer (obtained from the Dow Chemical Company), to which was added 1.966 mL of 3.5×10^−4 M CR aqueous dye solution, and 10 wt % P25 photocatalyst (with respect to pigment weight). The resulting dispersion was mixed under high-shear conditions in a high speed mixer.
Thereafter, 0.6 g of 2020E thickener (a non-ionic urethane rheology modifier) was added into the slurry, and the resulting dispersion was mixed under high-shear conditions in a high-speed mixer, to obtain the final formulation dispersion. The solid (dried) film coating was prepared with a 3 mil (1 mil=0.001 inch) bar applicator on a polyacrylic substrate and dried for 48 h prior to conducting the photocatalysis experiments. During photocatalysis, all the coatings were exposed to sunlight (under similar conditions) for an exposure period of 6 hours. Prior to sunlight exposure, 100 mg of the coating was scraped off with a sharp blade, and was extracted in 1.5 mL of absolute ethanol for UV-visible spectroscopy analysis, to obtain a datum of CR organic dye concentration in the film prior to photocatalysis. Similarly, another 100 mg portion of coating scraped off and extracted after 6 hours of sunlight exposure, and the percentage of dye degradation was calculated by UV-visible spectrophotometry.
To investigate the photopassivation effectiveness of a separate cerium (III) compound in a dry (solid) paint film coating, insoluble cerium (III) carbonate particles and CR organic dye at a concentration of 3×10^−5 M were incorporated into a waterborne acrylic paint formulation dispersion, using either Ti-Pure-R706 or the same rutile TiO2 used in Example 1 as the pigment, and assessed the rate of dye photodegradation relative to an identical dispersion, in the absence of cerium (III) carbonate particles.
The composition of this dispersion, and the procedure for synthesizing the dried coating film is described in the paragraph below. […]

The nature of series [4]: CR dye photodegradation in TiO2-based sunscreen film (Neutrogena Broad Spectrum Mineral Sunscreen SPF 60+). The settings on record: 3.0 wt. % added agent relative to sunscreen weight. The protocol: Films on filter paper were fabricated and photoreactor experiments were conducted exactly the same way as described in Example 7.3, using CR dye, except UV irradiation in the photoreactor was conducted for a period of 4 h. These films contained either no UV-protecting agent, 3.0 wt. % of Ce2(CO3)3·6H2O that was synthesized according to Example 3, 3.0 wt. % of commercial Ce2(CO3)3·xH2O (Acros Organics), or 3.0 wt. % of ZnO (NANOBYK-3840). […] Upon adding 3 wt. % of Ce2(CO3)3·6H2O synthesized according to Example 3 to the sunscreen formulation, a decrease in the amount of CR dye photodegradation to 15±1% is observed. […] When cerium carbonate consisting of Ce2(CO3)3·xH2O from Acros Organics is instead used in place of Ce2(CO3)3·6H2O synthesized according to Example 3, photoprotection with 24±2% CR dye photodegradation is observed. The properties of Ce2(CO3)3·xH2O from Acros Organics have been ascribed in Example 4, and these aspects are borne out in conjunction with sunscreen-based formulations here as well. When instead of cerium carbonate ZnO (NANOBYK-3840) is used as a UV-protecting agent, less effect on CR dye photodegradation is observed. This is a similar outcome to observations with MB dye and ZnO-based sunscreen formulation in Example 7.2.
The amount of Ce2(CO3)3·6H2O synthesized according to Example 3 that was incorporated into the TiO2-based sunscreen was increased to 5.0 wt. %, and results are shown in FIGS. 23A-23B and are summarized in Table 4. […] There is a slight diminishing return for adding Ce2(CO3)3·6H2O both here and in Example 7.2, but the effect of increasing Ce2(CO3)3·6H2O on organic-molecule photoprotection is much more pronounced than in the case of ZnO.

As to `O=C([O-])[O-].O=C([O-])[O-].O=C([O-])[O-].[Ce+3].[Ce+3]` [Ce2(CO3)3·4H2O], in series [1], the “fold lower rate constant than with the same amount of cerium as Ce (III)-R706” value amounted to 1.5 fold. The “fold decreased rate of MB dye photodecomposition compared to control MB solution” value in series [2] is around 40 fold. In addition, the “photodegradation of CR organic dye in dried paint film” value is 29% in series [3] (Ti-Pure R706 pigment, 2 wt. % cerium (III) carbonate relative to pigment); 12% in series [3] (Ti-Pure R706 pigment, 5 wt. % cerium (III) carbonate relative to pigment); 20% in series [3] (rutile TiO2 pigment, 2 wt % cerium (III) carbonate relative to pigment); “did not show any detectable CR dye photodegradation” in series [3] (rutile TiO2 pigment, 5 wt % cerium (III) carbonate relative to pigment).

Turning to “Ce2(CO3)3·xH2O [Ce2(CO3)3·xH2O (ACROS Organics)]”, the “% of CR dye photodegradation after 4 h of UV irradiation in photoreactor” value is 24±2% in series [4] (listed as Ce2(CO3)3·xH2O from Acros Organics) and 24 ± 2% in series [4] (listed as Commercial Ce2(CO3)3•xH2O (Acros Organics)).
